# Several values for one entry are separate records, joined by “and”; a condition that tells them apart may be missing. Identical values can stand only once.
# Experiments:
# [1] = target: T1, steroid sulfatase in human cadaver skin homogenate (Homo sapiens, UniProt P08842); test: Assay Using Human Skin Homogenate (DHEAS cleavage); type: biochemical; details: 18 hrs at 37° C.
# T1 construct: Frozen specimens of human cadaver skin (about 100 mg per sample) are minced into small pieces; from tissue; host or cells: human cadaver skin, minced and suspended in Tris buffer with 0.1% Triton X-100
# T1 sequence (P08842 22-583): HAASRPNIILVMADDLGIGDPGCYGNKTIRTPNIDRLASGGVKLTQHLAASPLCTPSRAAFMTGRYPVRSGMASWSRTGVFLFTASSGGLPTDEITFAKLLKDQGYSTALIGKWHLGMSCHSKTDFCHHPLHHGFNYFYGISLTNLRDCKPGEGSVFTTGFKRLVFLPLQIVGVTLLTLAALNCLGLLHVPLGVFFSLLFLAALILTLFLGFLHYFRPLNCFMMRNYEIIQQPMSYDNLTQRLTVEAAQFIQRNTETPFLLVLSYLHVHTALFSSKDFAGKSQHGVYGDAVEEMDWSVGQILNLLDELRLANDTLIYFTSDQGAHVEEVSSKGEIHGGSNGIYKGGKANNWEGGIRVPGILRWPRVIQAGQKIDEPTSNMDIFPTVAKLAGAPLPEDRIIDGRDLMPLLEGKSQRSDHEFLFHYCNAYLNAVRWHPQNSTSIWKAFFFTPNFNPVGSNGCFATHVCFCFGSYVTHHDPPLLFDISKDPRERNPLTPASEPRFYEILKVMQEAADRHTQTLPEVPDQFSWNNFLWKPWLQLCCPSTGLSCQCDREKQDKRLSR
# Procedure: Frozen specimens of human cadaver skin (about 100 mg per sample) are minced into small pieces (about 1×1 mm) using sharp scissors. The pieces obtained are suspended in ten volumes (w/w) of buffer (20 mM Tris-HCl, pH 7.5), containing 0.1% Triton X-100. Test compounds (e.g. compounds of the present invention) are added at graded concentrations from stock solutions in ethanol or DMSO. Second, DHEAS as the substrate is added ([…] [^3H]DHEAS, specific activity: about 60 Ci/mmol, and 20 μM unlabeled DHEAS). Samples are incubated for 18 hrs at 37° C. At the end of the incubation period, 50 μl of 1 M Tris, pH 10.4 and 3 ml of toluene are added. A 1-ml aliquot of the organic phase is removed and subjected to liquid scintillation counting. The determined dpm-values in the aliquots are converted to nmol of DHEA cleaved per g of skin per hour.
# [2] = target: T2, purified human steroid sulfatase (Homo sapiens, UniProt P08842); test: Assay of Human Steroid Sulfatase (4-methylumbelliferyl sulfate cleavage); type: biochemical; details: reference compound, determined in parallel
# T2 construct: Human placenta is obtained freshly after delivery and stripped of membranes and connective tissues; from tissue; host or cells: human placenta (microsomes, Triton X-100 extract, hydroxy apatite / concanavalin A sepharose / blue sepharose chromatography)
# T2 sequence (P08842 22-583): T1 sequence (P08842 22-583)
# Procedure: For storage, the material is frozen at −70° C.
# The activity is recovered in the flow-through.
# Plates are incubated at 37° C. for 1 hour.
# Relative IC50 values are defined as follows: […]
# [3] = system: irritant contact dermatitis elicited with tetradecanoylphorbol-13-acetate (TPA) on mouse ears; test: Anti-Inflammatory Test System (TPA-elicited irritant contact dermatitis, auricular weights); type: in vivo, mice, strain NMRI; details: topical 10 μl, 6 hours after TPA
# Procedure: The test sites on the inner surface of the right external ears of mice, e.g. strain NMRI, (8 per group) are treated with 10 μl of the dissolved test compound or with the vehicle (a 4:4:2 mixture of ethanol/acetone/dimethylacetamide) alone. The test compounds are applied alone or in combination at concentrations shown in the TEST RESULT TABLE. Thirty minutes after the treatment irritant contact dermatitis is elicitated at the treated auricular sites with 10 μl 0.005% tetradecanoylphorbol-13-acetate (TPA).
# Skin inflammation is assessed 6 hours after the elicitation by determination of the auricular weights, as a measure of inflammatory swelling. The animals are killed and both ears are cut off and weighed. Inhibitory activity of test compounds is calculated from differences in right and left ears (internal controls) in mice treated with the test compounds compared with animals treated with the vehicle only. Results obtained are as set out in TEST RESULT TABLE below:
# In the TEST RESULT TABLE the concentrations of the compounds (in bold) used are indicated in micromol/litre. The values given in the TEST RESULT TABLE (in regular letters) are the inhibition in % determined according to the ANTI-INFLAMMATORY TEST SYSTEM used.
SMILES,IC50 [1],further results
NC(=O)c1ccc(C(F)(F)F)cc1N1CCC(CC(=O)NS(=O)(=O)c2cccc(Cl)c2Cl)CC1 [Example 248],30 to 270 nM,–
Cc1c(Cl)cccc1S(=O)(=O)NC(=O)CC1CCN(c2cc(C(F)(F)F)ccc2C(N)=O)CC1 [Example 251],30 to 270 nM,–
"C[C@]12CC[C@@H]3c4ccc(OS(N)(=O)=O)cc4CC[C@H]3[C@@H]1CCC2=O [estrone sulfamate, estrone 3-O-sulfamate]",–,IC50 [2]: ~60 nM
"CC[C@@H]1/C=C(\C)C[C@H](C)C[C@H](OC)[C@H]2O[C@@](O)(C(=O)C(=O)N3CCCC[C@H]3C(=O)O[C@H](/C(C)=C/[C@@H]3CC[C@H](Cl)[C@H](OC)C3)[C@H](C)[C@@H](O)CC1=O)[C@H](C)C[C@@H]2OC [pimecrolimus, {[1E-(1R,3R,4S)]1R,9S,12S,13R,14S,17R,18E,21S,23S,24R,25S,27R}-12-[2-(4-chloro-3-methoxycyclohexyl)-1-methylvinyl]-17-ethyl-1,14-dihydroxy-23,25-dimethoxy-13,19,21,27-tetramethyl-11,28,dioxa-4-azatricyclo[22.3.1.0(4,9)]octacos-18-ene-2,3,10,16-tetraone]",–,"inhibition in % ([3]; pimecrolimus 0.1, example 217 or 218 0 micromol/litre): 15%; inhibition in % ([3]; pimecrolimus 0.3, example 217 or 218 0 micromol/litre): 29%; inhibition in % ([3]; pimecrolimus 1.0, example 217 or 218 0 micromol/litre): 30%; inhibition in % ([3]; pimecrolimus 3.0, example 217 or 218 0 micromol/litre): 31%; inhibition in % ([3]; pimecrolimus 10, example 217 or 218 0 micromol/litre): 42%"

# Continued, in another order:
IC50 [1],SMILES,further results
30 to 270 nM and 270 nM,"CC(C)(C)OC(=O)N1CC2CCCCC(C1)C2C(=O)NS(=O)(=O)c1cc(C(F)(F)F)cc(C(F)(F)F)c1 (single isomer, unassigned) [Example 217, 10-(3,5-bis-trifluoromethyl-benzenesulfonylaminocarbonyl)-8-aza-bicyclo[4.3.1]decane-8-carboxylic acid tert-butyl ester]",–
30 to 270 nM,O=C(NS(=O)(=O)c1cc(C(F)(F)F)cc(C(F)(F)F)c1)C1C2CCCCC1CN(C(=O)CC1CCCC1)C2 (centres unmarked) [Example 208],–
30 to 270 nM and 270 nM,CC(C)(C)OC(=O)N1CC2CCCCC(C1)C2C(=O)NS(=O)(=O)c1cc(C(F)(F)F)cc(C(F)(F)F)c1 (centres unmarked) [Example 218],–
30 to 270 nM,NC(=O)c1ccc(C(F)(F)F)cc1N1CCC(CC(=O)NS(=O)(=O)c2cc(Cl)cc(Cl)c2)CC1 [Example 249],–
30 to 270 nM,NC(=O)c1ccc(C(F)(F)F)cc1N1CCC(CS(=O)(=O)NC(=O)c2cc(C(F)(F)F)cc(C(F)(F)F)c2)CC1 [Example 379],melting point: 268 to 273 °C

# From patent US20080293758A1, “Combination of a Steroid Sulfatase Inhibitor and an Ascomycin” (Novartis AG, priority 2005, published 2008)
